Tests used:
[1] = tested on: human airway epithelial cells (HAECs); assay: High-throughput sequencing (HTS) of miRNAs at four stages of differentiation of HAECs; details: for Modulation (ratio of the level of intensity of expression in log2 in two stages of differentiation) measured by high-throughput sequencing, D7 − D0 / Modulation (ratio of the level of intensity of expression in log2 in two stages of differentiation) measured by high-throughput sequencing, FC − D7 / Modulation (ratio of the level of intensity of expression in log2 in two stages of differentiation) measured by high-throughput sequencing, WD − D0 / Modulation (ratio of the level of intensity of expression in log2 in two stages of differentiation) measured by high-throughput sequencing, WD − FC / Level of intensity of expression in log2 measured by high-throughput sequencing, D0 / Level of intensity of expression in log2 measured by high-throughput sequencing, D7 / Level of intensity of expression in log2 measured by high-throughput sequencing, FC / Level of intensity of expression in log2 measured by high-throughput sequencing, WD: Table VI; for Level of intensity of expression in log2 At the differentiated stage (WD) measured in HTS: healthy human airway epithelial tissue; for Level of intensity of expression in log2 measured by high-throughput sequencing, D0: stage D0; for Level of intensity of expression in log2 measured by high-throughput sequencing, D7: stage D7; for Level of intensity of expression in log2 measured by high-throughput sequencing, FC: stage FC; for Level of intensity of expression in log2 At the differentiated stage (WD) measured in HTS / Level of intensity of expression in log2 measured by high-throughput sequencing, WD: stage WD
How it was run: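 ALI cultures sampled at day 0, day 7, first-cilia stage (~14 d) and full differentiation (~21 d). Trizol lysis, column purification retaining small RNAs. Adaptor ligation, RT at 42° C for 30 min, PCR, gel selection of ~105-150 base products.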

[2] = tested on: basal cells and pyramidal cells of the airway epithelium; assay: miRNA expression in sorted basal cells versus pyramidal cells (ciliated + secretory), HTS and Agilent chips; parameters: species or system human; details: for Modulation of expression of the miRNAs in pyramidal cells (323(−)) relative to basal cells 323(+): HTS and Agilent chips; for Intensity of the level of expression in log2 in pyramidal cells (323(−)): pyramidal cells (ciliated + secretory)
How it was run: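 FACS on CD151 and tissue factor: double-positive = basal, double-negative = ciliated + mucus cells; DAPI, doublets, aggregates excluded; sort at 5000 events/s. Purity checked by cytometry/immunocytochemistry. miRNA by Agilent array or HTS on total RNA. Source: nasal polyps/conchae, 3 donors.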

[3] = tested on: human airway epithelial cells (HAECs); assay: Agilent miRNA chips, miRNA expression at four stages of differentiation of HAECs; details: for Modulation (ratio of the level of intensity of expression in log2 in two stages of differentiation) measured with the Agilent chips, D7 − D0 / Modulation (ratio of the level of intensity of expression in log2 in two stages of differentiation) measured with the Agilent chips, FC − D7 / Modulation (ratio of the level of intensity of expression in log2 in two stages of differentiation) measured with the Agilent chips, WD − D0 / Modulation (ratio of the level of intensity of expression in log2 in two stages of differentiation) measured with the Agilent chips, WD − FC / Level of intensity of expression in log2 measured with the Agilent chips, D0 / Level of intensity of expression in log2 measured with the Agilent chips, D7 / Level of intensity of expression in log2 measured with the Agilent chips, FC / Level of intensity of expression in log2 measured with the Agilent chips, WD: Table VI; for Modulation (ratio of the level of intensity of expression in log2 at two stages of differentiation), FC − D7 / Modulation (ratio of the level of intensity of expression in log2 at two stages of differentiation), WD − FC: Agilent miRNA chips, Table V; for Level of intensity of expression in log2 measured with the Agilent chips, D0: stage D0; for Level of intensity of expression in log2 measured with the Agilent chips, D7: stage D7; for Level of intensity of expression in log2 measured with the Agilent chips, FC: stage FC; for Level of intensity of expression in log2 measured with the Agilent chips, WD: stage WD
How it was run: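 RNA from the same patients' HAECs at four differentiation stages was labelled and hybridized with the Agilent miRNA labeling and hybridization kit. Chips were Human miRNA Microarray v2, with 866 human and 89 viral miRNAs (miRBase v12.0). Profiles were compared with high-throughput sequencing data.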

| Substance | Modulation (ratio of the level of intensity of expression in log2 in two stages of differentiation) measured by high-throughput sequencing, D7 − D0 [1] [log2] | Modulation (ratio of the level of intensity of expression in log2 in two stages of differentiation) measured by high-throughput sequencing, FC − D7 [1] [log2] | Modulation (ratio of the level of intensity of expression in log2 in two stages of differentiation) measured by high-throughput sequencing, WD − D0 [1] [log2] | Modulation (ratio of the level of intensity of expression in log2 in two stages of differentiation) measured by high-throughput sequencing, WD − FC [1] [log2] | Level of intensity of expression in log2 At the differentiated stage (WD) measured in HTS [1] [log2] | Level of intensity of expression in log2 measured by high-throughput sequencing, D0 [1] [log2] | Level of intensity of expression in log2 measured by high-throughput sequencing, D7 [1] [log2] | Level of intensity of expression in log2 measured by high-throughput sequencing, FC [1] [log2] | Level of intensity of expression in log2 measured by high-throughput sequencing, WD [1] [log2] | Modulation of expression of the miRNAs in pyramidal cells (323(−)) relative to basal cells 323(+) [2] | Intensity of the level of expression in log2 in basal cells (323(+)) [2] [log2] | Intensity of the level of expression in log2 in pyramidal cells (323(−)) [2] [log2] | Modulation (ratio of the level of intensity of expression in log2 in two stages of differentiation) measured with the Agilent chips, D7 − D0 [3] [log2] | Modulation (ratio of the level of intensity of expression in log2 at two stages of differentiation), FC − D7 [3] [log2] | Modulation (ratio of the level of intensity of expression in log2 in two stages of differentiation) measured with the Agilent chips, FC − D7 [3] [log2] | Modulation (ratio of the level of intensity of expression in log2 in two stages of differentiation) measured with the Agilent chips, WD − D0 [3] [log2] | Modulation (ratio of the level of intensity of expression in log2 at two stages of differentiation), WD − FC [3] [log2] | Modulation (ratio of the level of intensity of expression in log2 in two stages of differentiation) measured with the Agilent chips, WD − FC [3] [log2] | Level of intensity of expression in log2 measured with the Agilent chips, D0 [3] [log2] | Level of intensity of expression in log2 measured with the Agilent chips, D7 [3] [log2] | further results |
| --- | --- | --- | --- | --- | --- | --- | --- | --- | --- | --- | --- | --- | --- | --- | --- | --- | --- | --- | --- | --- | --- |
| hsa-miR-26a: human miRNA, SEQ ID No. 28 (UUCAAGUAAUCCAGGAUAGGCU; expressed or natural sequence; listed as Homo sapiens) | 1.31 | −0.98 | 3.22 | 2.90 | 7.75 | 0.30 | 1.61 | 0.62 | 3.52 | −2.24 | 9.92 | 7.68 | 2.20 | −0.11 | −0.11 | 2.15 | 0.06 | 0.06 | 8.50 | 10.70 | Level of intensity of expression in log2 measured with the Agilent chips, FC [3]: 10.59 log2; Level of intensity of expression in log2 measured with the Agilent chips, WD [3]: 10.65 log2 |
| hsa-miR-26b: human miRNA, SEQ ID No. 29 (UUCAAGUAAUUCAGGAUAGGU; expressed or natural sequence; listed as Homo sapiens) | 0.09 | 0.05 | 0.92 | 0.78 | 6.81 | 6.84 | 6.93 | 6.97 | 7.75 | −1.47 | 8.75 | 7.28 | 1.94 | −0.37 | −0.37 | 1.65 | 0.08 | 0.08 | 7.97 | 9.91 | Level of intensity of expression in log2 measured with the Agilent chips, FC [3]: 9.54 log2; Level of intensity of expression in log2 measured with the Agilent chips, WD [3]: 9.62 log2 |
| hsa-miR-27b: human miRNA, SEQ ID No. 30 (UUCACAGUGGCUAAGUUCUGC; expressed or natural sequence; listed as Homo sapiens) | 0.64 | −0.69 | −0.11 | −0.06 | 14.81 | 6.92 | 7.57 | 6.88 | 6.81 | −3.56 | 9.77 | 6.21 | 1.77 | −0.47 | −0.47 | 1.36 | 0.05 | 0.05 | 9.26 | 11.03 | Level of intensity of expression in log2 measured with the Agilent chips, FC [3]: 10.57 log2; Level of intensity of expression in log2 measured with the Agilent chips, WD [3]: 10.62 log2 |

Reference: patent publication US9023821B2, “Use of MicroRNA for treating diseases associated with a dysfunction of the cilia in multiciliated epithelial cells” (Centre National de la Recherche Scientifique, priority 2009, dated 2015)
